Legend:
[1] = tested on: ICR mice; assay: Toxicity after intraperitoneal injection, 24 hrs observation, mice; type: in vivo; settings: intraperitoneal 20, 10 and 1 mg/kg
Experimental: (§1) The Adenosine Derivative of the present invention were assayed for cytotoxicity in animals.

[2] = tested on: Sprague Dawley rats; assay: Toxicity after intraperitoneal injection, 24 hrs observation, rats; type: in vivo; settings: SD rats, intraperitoneal 20, 10 and 1 mg/kg
Experimental: as §1

[3] = molecular target: T1, human A1 adenosine receptor (hA1) (Homo sapiens, UniProt P30542); assay: Binding affinity for A1 adenosine receptor ([3H]CCPA, CHO cells); settings: percentage inhibition of specific binding in the presence of 10 μM of the unlabeled ligand NECA
T1 construct: expressed in transfected cells; host or cells: CHO cells (ATCC No. CCL-61)
T1 sequence (P30542 1-326): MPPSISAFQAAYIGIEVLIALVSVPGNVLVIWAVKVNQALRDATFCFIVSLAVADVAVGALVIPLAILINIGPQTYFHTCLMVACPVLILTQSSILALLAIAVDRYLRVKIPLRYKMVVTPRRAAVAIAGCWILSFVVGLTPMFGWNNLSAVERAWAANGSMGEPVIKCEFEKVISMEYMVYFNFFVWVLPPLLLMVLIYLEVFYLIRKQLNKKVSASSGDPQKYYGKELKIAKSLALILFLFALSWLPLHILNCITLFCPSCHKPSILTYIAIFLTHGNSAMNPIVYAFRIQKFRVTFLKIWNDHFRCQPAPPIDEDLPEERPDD
Experimental: CHO cells (ATCC No. CCL-61), in which A1 and A3 adenosine receptors were expressed, were cultured in F-12 media (Gibco, U.S.A.) supplemented with 10% fetal bovine serum (FBS) and penicillin/streptomycin (100 units/ml and 100 g/ml), at 37° C. in a 5% CO2 atmosphere. […] Incubation for 1 hr in a 37° C. incubator was followed by rapid filtration in a vacuum using a cell collector (TOMTEC, U.S.A.). Subsequently, the test tubes were washed three times with 3 ml of the buffer before radioactivity was measured using a γ-counter. […] Ki for binding affinity was determined by subtracting the non-specific binding value from the total binding value. On the basis of the specific binding values, the samples were analyzed for binding affinity to various adenosine receptors.

[4] = molecular target: T2, human A2A adenosine receptor (hA2A) (Homo sapiens, UniProt P29274); assay: Binding affinity for A2A adenosine receptor ([3H]CGS-21680, HEK 293 cell); settings: percentage inhibition of specific binding of 10 μM labeled ligand in the presence of 10 μM of the unlabeled ligand NECA
T2 construct: expressed in transfected cells; host or cells: HEK 293 cell
Experimental: Each of the compounds synthesized in the examples was measured for IC50 at least 6 different concentrations, and the measurements were analyzed using SigmaPlot software to determine Ki values.

[5] = tested on: TPA-induced inflammation of the mouse ear; assay: Anti-inflammatory activity, TPA-induced inflammation of the mouse ear; type: in vivo, ICR mice; settings: for Anti-inflammatory activity (TPA-induced mouse ear inflammation): 0.5% in acetone, 20 μl, topical to ear
Experimental: The adenosine derivatives of the present invention were examined for anti-inflammatory activity in the following animal test. Seven-week-old male ICR mice were treated with TPA (12-O-tetradecanoylphorbol-13-acetate, 20 l) in the right ear. […] Hydrocortisone was used at the same concentration as a control.
6 hrs after treatment with TPA, the mice were secondarily treated with the adenosine derivatives of the present invention. 24 hrs after TPA treatment, test animals were euthanized using a cervical dislocation method. Samples were obtained from the right ear using a 6 mm diameter punch. The activity was observed by measuring the ear sample using a microbalance. Percentages of inhibition were calculated using the following Equation 1. The compositions and amounts used in these experiments are summarized in Tables 14 to 17 and the anti-inflammatory activities thereof are shown in FIGS. 10 to 13.

[6] = patients with liver cirrhosis; cited from earlier work

T2 sequence (P29274 whole entry): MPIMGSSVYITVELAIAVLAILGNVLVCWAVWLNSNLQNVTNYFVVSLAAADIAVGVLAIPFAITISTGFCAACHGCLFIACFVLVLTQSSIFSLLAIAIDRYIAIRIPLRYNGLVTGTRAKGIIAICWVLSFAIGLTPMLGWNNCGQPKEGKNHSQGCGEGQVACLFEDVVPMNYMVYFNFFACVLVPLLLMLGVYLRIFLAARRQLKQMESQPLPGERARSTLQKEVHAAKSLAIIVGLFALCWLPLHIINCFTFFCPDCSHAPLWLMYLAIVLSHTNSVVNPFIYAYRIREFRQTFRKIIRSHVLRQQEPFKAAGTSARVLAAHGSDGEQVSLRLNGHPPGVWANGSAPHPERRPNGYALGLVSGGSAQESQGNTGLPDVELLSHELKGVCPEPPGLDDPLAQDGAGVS

With `O[C@@H]1[C@H](O)CS[C@H]1n1cnc2c(NCc3cccc(Cl)c3)nc(Cl)nc21` [Example 2, (2R,3R,4S)-2-(2-chloro-6-(3-chlorobenzylamino)-9H-purin-9-yl)tetrahydrothiophen-3,4-diol] the “Weight gain or feed intake versus control group” value [1] was “No difference in weight gain or feed intake”, the “Weight gain or feed intake versus control group” value [2] was “No difference in weight gain or feed intake” and the “% inhibition of specific binding, hA1” value [3] was 37.9%. For the same compound, the “% inhibition of specific binding, hA2A” value [4] was 17.7%.

For `O[C@@H]1[C@H](O)CO[C@H]1n1cnc2c(NCc3cccc(I)c3)nc(Cl)nc21` [Example 16, (2R,3R,4R)-2-(2-chloro-6-(3-iodobenzylamino)-9H-purin-9-yl)tetrahydrofuran-3,4-diol], the “Percentage of inflammation inhibition” value ([5]; 0.5% in a mixture of DMSO and acetone (1:9)) was 79%.

In the case of `CC[C@H]1[C@@H](O)[C@@H]2[C@H](CC[C@]3(C)[C@@H]([C@H](C)CCC(=O)O)CC[C@@H]23)[C@@]2(C)CC[C@@H](O)C[C@@H]12` [OCA, obeticholic acid], the “Liver safety in patients” value [6] is listed as “may induce acute liver failure in patients with liver cirrhosis”.

With `COc1ccc(Cl)cc1CNc1nc(Cl)nc2c1ncn2[C@@H]1SC[C@@H](O)[C@H]1O` [Example 6, (2R,3R,4S)-2-(2-chloro-6-(5-chloro-2-methoxybenzylamino)-9H-purin-9-yl)tetrahydrothiophen-3,4-diol] the “Percentage of inflammation inhibition” value ([5]; 0.5% in a mixture of distilled water and acetone (1:4)) was 34% and the “Anti-inflammatory activity (TPA-induced mouse ear inflammation)” value [5] was “increased”.

For `O[C@@H]1[C@H](O)CS[C@H]1n1cnc2c(NCc3cccc(F)c3)nc(Cl)nc21` [Example 1, (2R,3R,4S)-2-(2-chloro-6-(3-fluorobenzylamino)-9H-purin-9-yl)tetrahydrothiophen-3,4-diol], the “Anti-inflammatory activity (TPA-induced mouse ear inflammation)” value [5] was “increased”.
